Common to all, as to experiment: NCI tumour cell line growth inhibition, 48 h
The test system of assay [1] is M19-MEL melanoma.
Assay [2] concerns LXFL 529 NSCLC.
Assay [3] deals with UACC-257 melanoma.
Assay [4] relates to SK-MEL-28 melanoma.
Assay [5] has as its system DLD-1 colon.
For assay [6], the system named is RXF 393 renal.
The subject of assay [7] is DMS 114 small cell lung.
In assay [8] the test system is CAKI-1 renal.
In assay [9] the test system is SF-268 CNS.
Assay [10] concerns NCI-H23 lung.
The test system of assay [11] is RPMI-8226 leukemia.
The test system of assay [12] is SF-539 CNS.

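1) Cells in 96-well plates. 2) Compound, 48 h, 5 concentrations. 3) Linear interpolation between surrounding doses. 4) Unreached endpoint = highest concentration. TGI denotes the concentration required for complete inhibition of growth.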

Consider `CN(C)CC1CC/C(=C\c2ccc(Cl)c(Cl)c2)C1=O` (centres undefined), for which the TGI is over 51.2 µM in assay [1]; 27 µM in assay [2]; over 60.9 µM in [3]; over 84.8 µM in [4]; 50.1 µM in assay [5]; over 61.8 µM in assay [6]. In addition, the TGI is over 72.7 µM in [7]; 56.1 µM in [8]; over 74.3 µM in assay [9]; 47.3 µM in assay [10]; 8.92 µM in assay [11]; over 55.7 µM in assay [12].
Turning to `NC(N)NCCCc1cn2c(n1)C1CCCN1C(=O)C2Cc1ccccc1` (centres undefined), the TGI in [1], in assay [2], in assay [3], in [4], in assay [5] and in [6] was over 100 µM each time. For the same compound, the TGI in [7], in assay [8], in assay [9], in assay [10], in [11] and in assay [12] was over 100 µM each time.

The record behind these values is PubChem BioAssay (NCI).
